# Measurements taken from patent US20240246942A1, “KINASE INHIBITORS FOR THE TREATMENT OF NEURODEGENERATIVE DISEASES” (priority 2020, published 2024).
# Columns and labels:
# Assay in all cases: biochemical
# [1] = target: T1, panel of 374 wild-type kinases (Homo sapiens, UniProt Q8TF76); settings: read-out: % Enzyme Activity (relative to DMSO controls), Haspin
# T1 construct: purchased Reaction Biology Corporation
# T1 sequence (Q8TF76 1-798): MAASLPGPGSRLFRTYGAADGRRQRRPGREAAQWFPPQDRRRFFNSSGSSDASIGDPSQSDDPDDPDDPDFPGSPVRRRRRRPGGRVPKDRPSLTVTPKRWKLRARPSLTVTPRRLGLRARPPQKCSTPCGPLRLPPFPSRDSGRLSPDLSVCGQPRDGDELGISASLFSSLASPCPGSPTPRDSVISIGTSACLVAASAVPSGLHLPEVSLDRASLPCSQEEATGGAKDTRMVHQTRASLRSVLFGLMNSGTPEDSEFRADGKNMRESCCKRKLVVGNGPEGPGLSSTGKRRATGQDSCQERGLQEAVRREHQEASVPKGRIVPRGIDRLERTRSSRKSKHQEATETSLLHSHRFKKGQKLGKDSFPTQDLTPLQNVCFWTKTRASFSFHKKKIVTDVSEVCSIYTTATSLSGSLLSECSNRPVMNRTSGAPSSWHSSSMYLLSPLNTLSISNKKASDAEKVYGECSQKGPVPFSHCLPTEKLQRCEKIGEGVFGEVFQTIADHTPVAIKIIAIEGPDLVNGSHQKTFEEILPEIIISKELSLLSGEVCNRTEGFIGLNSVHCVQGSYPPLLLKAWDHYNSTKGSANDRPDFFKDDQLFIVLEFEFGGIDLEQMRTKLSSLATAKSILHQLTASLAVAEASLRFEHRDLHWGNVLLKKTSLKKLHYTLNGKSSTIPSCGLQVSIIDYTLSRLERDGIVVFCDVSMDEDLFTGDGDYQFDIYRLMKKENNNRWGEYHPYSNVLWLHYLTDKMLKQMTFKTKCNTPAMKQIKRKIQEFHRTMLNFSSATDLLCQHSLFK
# [2] = target: T2, panel of 374 wild-type kinases (Homo sapiens, UniProt O00238); settings: read-out: % Enzyme Activity (relative to DMSO controls), ALK6/BMPR1B
# T2 construct: purchased Reaction Biology Corporation
# [3] = target: T3, panel of 374 wild-type kinases (Homo sapiens, UniProt Q8NE63); settings: read-out: % Enzyme Activity (relative to DMSO controls), HIPK4
# T3 construct: purchased Reaction Biology Corporation
# T3 sequence (Q8NE63 1-616): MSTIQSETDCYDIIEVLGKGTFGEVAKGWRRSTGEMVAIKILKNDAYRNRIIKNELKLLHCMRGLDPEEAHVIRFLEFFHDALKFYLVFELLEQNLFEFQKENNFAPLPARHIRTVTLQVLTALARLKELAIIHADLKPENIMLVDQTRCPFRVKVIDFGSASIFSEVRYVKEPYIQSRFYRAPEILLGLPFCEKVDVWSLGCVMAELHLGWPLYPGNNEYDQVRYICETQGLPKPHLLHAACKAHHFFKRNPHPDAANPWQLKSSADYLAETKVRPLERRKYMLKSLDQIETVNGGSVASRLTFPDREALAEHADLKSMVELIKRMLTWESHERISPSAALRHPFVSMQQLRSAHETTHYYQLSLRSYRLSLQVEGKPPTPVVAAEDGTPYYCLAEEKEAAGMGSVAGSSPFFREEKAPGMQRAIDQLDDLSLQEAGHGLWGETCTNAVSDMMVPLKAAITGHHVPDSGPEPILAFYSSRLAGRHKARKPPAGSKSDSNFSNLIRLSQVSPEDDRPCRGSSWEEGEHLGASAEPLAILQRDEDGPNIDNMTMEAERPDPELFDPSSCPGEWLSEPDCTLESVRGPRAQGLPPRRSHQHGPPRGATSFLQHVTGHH
# [4] = target: T4, panel of 374 wild-type kinases (Homo sapiens, UniProt P57078); settings: read-out: % Enzyme Activity (relative to DMSO controls), kinase RIPK4
# T4 construct: purchased Reaction Biology Corporation
# T4 sequence (P57078 1-832): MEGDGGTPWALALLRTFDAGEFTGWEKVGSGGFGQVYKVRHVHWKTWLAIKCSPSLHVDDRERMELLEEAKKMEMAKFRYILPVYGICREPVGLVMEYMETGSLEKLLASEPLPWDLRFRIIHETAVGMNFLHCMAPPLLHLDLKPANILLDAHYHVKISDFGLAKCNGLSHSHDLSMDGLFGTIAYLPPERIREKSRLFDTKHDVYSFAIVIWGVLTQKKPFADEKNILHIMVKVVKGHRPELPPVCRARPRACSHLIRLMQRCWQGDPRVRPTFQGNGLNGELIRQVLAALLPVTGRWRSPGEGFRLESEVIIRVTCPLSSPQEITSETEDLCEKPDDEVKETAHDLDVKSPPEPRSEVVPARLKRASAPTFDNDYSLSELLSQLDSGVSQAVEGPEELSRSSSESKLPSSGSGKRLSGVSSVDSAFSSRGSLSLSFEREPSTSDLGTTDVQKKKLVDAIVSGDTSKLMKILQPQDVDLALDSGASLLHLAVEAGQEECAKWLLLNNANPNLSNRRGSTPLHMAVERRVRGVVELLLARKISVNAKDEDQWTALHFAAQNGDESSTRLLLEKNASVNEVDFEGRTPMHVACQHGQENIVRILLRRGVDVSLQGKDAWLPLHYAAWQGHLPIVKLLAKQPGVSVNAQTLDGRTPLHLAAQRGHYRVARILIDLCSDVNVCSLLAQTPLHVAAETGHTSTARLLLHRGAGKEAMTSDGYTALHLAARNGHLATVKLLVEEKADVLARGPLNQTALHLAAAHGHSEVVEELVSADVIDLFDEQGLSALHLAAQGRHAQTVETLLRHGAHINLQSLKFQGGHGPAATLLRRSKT
# [5] = target: T5, panel of 374 wild-type kinases (Homo sapiens, UniProt Q96KB5); settings: read-out: % Enzyme Activity (relative to DMSO controls), kinase PBK/TOPK
# T5 construct: purchased Reaction Biology Corporation
# T5 sequence (Q96KB5 1-322): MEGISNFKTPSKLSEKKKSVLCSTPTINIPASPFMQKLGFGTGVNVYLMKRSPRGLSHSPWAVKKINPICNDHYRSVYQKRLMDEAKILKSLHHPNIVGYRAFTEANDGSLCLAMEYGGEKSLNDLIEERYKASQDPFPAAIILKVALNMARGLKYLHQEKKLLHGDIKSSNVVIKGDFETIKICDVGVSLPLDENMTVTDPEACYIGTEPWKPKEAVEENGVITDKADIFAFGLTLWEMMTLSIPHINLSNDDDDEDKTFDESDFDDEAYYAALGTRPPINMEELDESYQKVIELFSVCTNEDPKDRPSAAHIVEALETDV
# [6] = target: T6, panel of 374 wild-type kinases (Homo sapiens, UniProt O75460); settings: read-out: % Enzyme Activity (relative to DMSO controls), ERN1/IRE1
# T6 construct: purchased Reaction Biology Corporation
# T6 sequence (O75460 19-977): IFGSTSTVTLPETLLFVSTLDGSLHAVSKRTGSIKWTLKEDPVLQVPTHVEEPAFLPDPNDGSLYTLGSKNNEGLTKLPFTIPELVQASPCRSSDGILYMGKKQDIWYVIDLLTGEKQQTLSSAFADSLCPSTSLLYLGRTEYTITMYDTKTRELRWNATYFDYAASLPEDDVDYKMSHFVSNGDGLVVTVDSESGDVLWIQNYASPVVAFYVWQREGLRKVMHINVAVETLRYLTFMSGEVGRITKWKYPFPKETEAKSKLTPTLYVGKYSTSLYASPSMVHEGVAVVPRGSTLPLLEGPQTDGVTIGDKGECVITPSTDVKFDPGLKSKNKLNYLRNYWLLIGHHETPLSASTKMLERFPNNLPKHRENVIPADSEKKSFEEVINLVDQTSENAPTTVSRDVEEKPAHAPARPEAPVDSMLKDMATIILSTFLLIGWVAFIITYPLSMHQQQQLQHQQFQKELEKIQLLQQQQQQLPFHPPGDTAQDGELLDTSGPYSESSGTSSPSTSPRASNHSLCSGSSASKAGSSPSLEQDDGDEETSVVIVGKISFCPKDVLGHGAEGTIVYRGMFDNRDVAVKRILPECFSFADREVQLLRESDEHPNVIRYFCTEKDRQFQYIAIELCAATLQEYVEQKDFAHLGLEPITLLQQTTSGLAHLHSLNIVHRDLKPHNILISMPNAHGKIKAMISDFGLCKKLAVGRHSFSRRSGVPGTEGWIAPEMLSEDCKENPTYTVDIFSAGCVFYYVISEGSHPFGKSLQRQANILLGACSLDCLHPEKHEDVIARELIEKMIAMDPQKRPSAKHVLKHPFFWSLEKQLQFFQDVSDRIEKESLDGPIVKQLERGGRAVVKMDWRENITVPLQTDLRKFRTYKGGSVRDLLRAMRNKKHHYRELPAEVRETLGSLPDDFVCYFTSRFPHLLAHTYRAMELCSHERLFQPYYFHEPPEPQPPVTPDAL
# T2 sequence (O00238 14-502): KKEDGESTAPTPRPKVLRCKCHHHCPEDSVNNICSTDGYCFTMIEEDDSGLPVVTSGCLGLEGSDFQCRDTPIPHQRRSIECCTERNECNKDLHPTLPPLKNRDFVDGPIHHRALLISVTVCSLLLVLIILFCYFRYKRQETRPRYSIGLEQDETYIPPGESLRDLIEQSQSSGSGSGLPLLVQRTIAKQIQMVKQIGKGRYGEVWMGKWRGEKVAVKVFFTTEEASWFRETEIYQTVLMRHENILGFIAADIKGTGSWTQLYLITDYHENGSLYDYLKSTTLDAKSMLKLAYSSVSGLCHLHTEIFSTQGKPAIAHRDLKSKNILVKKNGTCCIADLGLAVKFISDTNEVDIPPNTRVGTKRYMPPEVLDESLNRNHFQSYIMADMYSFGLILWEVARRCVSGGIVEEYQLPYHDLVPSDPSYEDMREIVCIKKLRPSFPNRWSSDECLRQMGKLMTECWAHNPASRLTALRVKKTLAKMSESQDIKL
smiles,measurement,setting,value
"O=C(Nc1cnn(-c2csc(C(=O)NC3COC3)c2)c1)Nc1c(F)cccc1Cl [Compound 25, 4-(4-(3-(2-chloro-6-fluorophenyl)ureido)-1H-pyrazol-1-yl)-N-(oxetan-3-yl)thiophene-2-carboxamide]",remaining activity at 5 µM,[1],111%
same,remaining activity at 5 µM,[2],114%
same,remaining activity at 5 µM,[3],111%
same,remaining activity at 5 µM,[4],96.7%
same,remaining activity at 5 µM,[5],98.2%
same,remaining activity at 5 µM,[6],95.8%
"O=C(Nc1cnn(-c2csc(C(=O)NC3COC3)c2)c1)Nc1ccccc1Cl [Compound 17, 4-(4-(3-(2-chlorophenyl)ureido)-1H-pyrazol-1-yl)-N-(oxetan-3-yl)thiophene-2-carboxamide]",remaining activity at 5 µM,[1],112%
same,remaining activity at 5 µM,[2],109%
same,remaining activity at 5 µM,[3],100%
same,remaining activity at 5 µM,[4],89.2%
same,remaining activity at 5 µM,[5],115%
same,remaining activity at 5 µM,[6],94.3%
"Cc1sc(C(=O)NC2COC2)cc1-n1cc(NC(=O)Nc2c(F)cccc2Cl)cn1 [Compound 27, 4-(4-(3-(2-chloro-6-fluorophenyl)ureido)-1H-pyrazol-1-yl)-5-methyl-N-(oxetan-3-yl)thiophene-2-carboxamide]",remaining activity at 10 µM,[1]; 10 uM,92.4%
same,remaining activity at 10 µM,[2]; 10 uM,104%
same,remaining activity at 10 µM,[3]; 10 uM,98.4%
same,remaining activity at 10 µM,[4]; 10 uM,103%
same,remaining activity at 10 µM,[5]; 10 uM,88.5%
same,remaining activity at 10 µM,[6]; 10 uM,94.1%
